From patent publication US20210338709A1, “USES OF MODIFIED RNA ENCODING RETINALDEHYDE DEHYDROGENASE” (priority 2018, published 2021)

How the values were obtained:
mucosal memory responses = assay: Effect of ATRA on immune responses in skin-draining lymph nodes in vivo
Salmonella = conditions: ATRA during parenteral immunization, reference 12; cited from earlier work

## CC1=C(/C=C/C(C)=C/C=C/C(C)=C/C(=O)O)C(C)(C)CCC1 [ATRA, all-trans retinoic acid]
Mucosal memory responses
  mucosal memory responses at mucosal surfaces: not only enhanced in the small intestine, but also at other mucosal surfaces
Salmonella
  protection against Salmonella infections: convey protection against Salmonella infections
